Measured values published in patent US20240139185A1, “COMPOUNDS THAT PARTICIPATE IN COOPERATIVE BINDING AND USES THEREOF” (Revolution Medicines, Inc., priority 2018, published 2024).
Where two headings read alike, the source gives them in different places.

Key:
cyclophilin A (CYPA) = cyclophilin A (CYPA) (Homo sapiens, UniProt P62937); assay: CYPA-compound binary complex formation by SPR; conditions: read-out: CYPA Binding Affinity
Procedure: In order to determine the affinity of compounds of the invention for cyclophilin A (CYPA), we employed surface plasmon resonance binding analysis using the following reagents, instruments and protocol as supplied by the instrument manufacturer.
Reagents and Instrument • 1. Instrument: Biacore S200 (GE Healthcare Life Sciences) • 2. Running buffer: 1×HBS-P+ (1×HBS supplemented with 0.05% Tween20), pH7.4, and 2% DMSO. • 3. Ligand: CypA-Avi • 4. Analyte: Serial dilution of WDB compounds from 50 μM to 0 μM, 2-fold dilution, 10 points (10 mM stock concentration). • 5. Sensor kit: Biotin CAPture Kit (BR28-9202-34, GE Healthcare Life Sciences) • 6. Regeneration buffer: 1 volume of 1 M NaOH and 3 volumes of 8 M guanidine hydrochloride (supplied with CAPture Kit, BR28-9202-34, GE Healthcare Life Sciences)
Experimental Procedure • 1. Capture of CAPreagent: 2 μl/min for 60 seconds. • 2. Immobilization of ligand CypA: Use Fc1 as the reference cell; immobilize CypA at 4 μg/ml using 5 μl/min flowrate on Fc2 (60s), Fc3 (80s) and Fc4 (80s), respectively. • 3. Binding of analytes: Inject WDB compound dilutions sequentially at 50 μl/min for association of 60 seconds. And then let it dissociates in buffer at 50 μl/min for 60 seconds. • 4. Regeneration: 2 injections of regeneration buffer at 30 μl/min for 60 seconds to regenerate the chip surface. • 5. Solvent correction: Run solvent correction at beginning and the end of the run. If run more than 6 compounds, add additional solvent correction every 6 compounds. • 6. Data fitting with built-in Biacore Evaluation Software: Steady-state fitting.

[1] = molecular target: T1, BRAF-GTP-KRAS-G12C complex (Homo sapiens, UniProt P01116+P62937, G12C); assay: KRAS-BRAF complex disruption through competition with CYPA-compound by TR-FRET; conditions: biochemical BRAF-KRAS G12C-GTP disruption assay EC50, with CYPA
T1 construct: 50 nM of His6-KRas G12C-GTP (1-169); 500 nM of tagless CypA (1-165)
Procedure: In this example, TR-FRET was used to measure the compound-facilitated disruption of a KRAS-BRAF complex. A mixture of tagless Cyclophilin A, His6-KRAS G12C-GMP-PNP, and GST-BRAF RAS binding domain was added to a 384-well assay plate containing compounds of the invention and incubated for 3 hours. A mixture of Anti-His Eu-W1024 and anti-GST allophycocyanin was then added and the reaction was incubated for an additional 1.5 hours. TR-FRET signal was read on an EnVision microplate reader (Perkin Elmer, Ex 320 nm, Em 665/615 nm). Compounds that facilitate disruption of a KRAS_BRAF complex were identified as those eliciting a decrease in the TR-FRET ratio relative to DMSO control wells. To determine the presenter-dependence of the compound-mediated KRAS-BRAF complex disruption, Cyclophilin A was left out of the initial incubation (see Table 5). To determine G12C specificity of the compound-mediated KRAS-BRAF complex disruption, wild-type KRAS was used instead of G12C KRAS (see Table 5).
Reagents and Instrument • Tagless CYPA; 519 μM in PBS buffer, pH 7.4 • GST BRAF; 110 μM in PBS buffer, pH 7.4 • His6-KRASG12C-GMP-PNP; 50 μM in PBS buffer, pH 7.4 • His6-KRASWT-GMP-PNP; 40 μM in PBS buffer, pH 7.4 • Anti-His Eu-W1024 (LANCE® Eu-W1024; Perkin Elmer) • Anti-GST allophycocyanin (Anti-GST IgG conjugated to SureLight®-Allophycocyanin; Perkin Elmer; Product Number AD0059G) • Test compounds, 10 mM in 100% DMSO • EnVision (Perkin Elmer) • Combi MultiDrop liquid dispenser with 8-channel small volume cassette • 384-well ProxiPlate (black)
Experimental Protocol • 1. Use Mosquito to dispense 100 nL/well of compounds (varying concentration in […]) into 384-well black ProxiPlate to make assay-ready-plate (ARP). • 2. Make assay buffer containing 25 mM Hepes pH 7.3, 100 mM NaCl, 5 mM MgCl2, 0.05% BSA, and 0.002% Tween-20. • 3. Make PRE-MIX A: delivers final concentrations of 50 nM of His6-KRas G12C-GTP (1-169) and 500 nM of tagless CypA (1-165) in assay buffer. • a. For presenter dependence experiments, omit addition of tagless CypA • b. For G12C/wt specificity experiments, substitute His6-KRas WT-GTP (1-169) for His6-KRas G12C-GTP (1-169) • 4. Use MultiDrop Combi to dispense PRE-MIX A into ARP, 7 μl/well. Incubate 3 hr at room temperature. • 5. Make PRE-MIX B: delivers final concentrations of 10 nM of anti-His Eu-W1024 and 50 nM of anti-GST APC. • 6. Use MultiDrop Combi to dispense PRE-MIX B into ARP, 3 μl/well. Shake briefly on Combi and incubate 1.5 hr at room temperature. • 7. Read on EnVision (Ex: 320 nm; Em1: 615 nm; Em2: 665 nm). • 8. Data is processed using Dotmatics. Curves are fit using a 4-parameter non-linear fit to determine the EC50 value for formation of the ternary complex.

pERK in H358 cells = assay: pERK inhibition in H358 cells; format: cell-based, human; conditions: read-out: Cellular pERK inhibition
Procedure: H358 cells (5500 cells) derived from a human lung cancer were plated in a 96 well plate in media (100 uL, RPMI with 10% FBS). After 24 hours, cells were treated for 4 hours with compound or DMSO. Cells were washed twice with room temperature TBS (200 uL) and fixed for 20 minutes with 4% paraformaldehyde diluted with TBS (150 uL). Cells were washed four times for five minutes with 0.1% TritonX/TBS (150 uL) to permeabilize the membrane. Cells were incubated with TBS blocking buffer (100 uL) at room temperature for 60 minutes. Primary antibody (Phospho-p44/42 MAPK (Erk1/2) (Thr202/Tyr204) (D13.14.4E) XP® Rabbit mAb #4370, Cell Signaling Technology; 1:200) was added, and the cells were incubated overnight at 4 C. The cells were washed four times for five minutes with 0.1% Tween 20/TBS (150 uL). Secondary antibody (IRDye® 800CW Goat-Anti-Rabbit IgG, Li-Cor Biosciences; 1:1000) and DRAQ5™ (Invitrogen; 1:2000) was added, and the cells were incubated for 1 hour at room temperature. The cells were washed four times for five minutes with 0.1% Tween 20/TBS (150 uL) and scanned using the LICOR (700 and 800 nm).

[2] = Homo sapiens, NCI-H358, 4 hours treatment

| Structure (SMILES) | Kd (cyclophilin A (CYPA)) [µM] | EC50 [1] [nM] | IC50 (pERK in H358 cells; 4 hours treatment) [µM] | IC50 (pERK in H358 cells; [2]) [µM] |
| --- | --- | --- | --- | --- |
| CC1COC(=O)C2CCCN(N2)C(=O)C(NC(=O)C(C(C)C)N(C)C(=O)C2CN(C(=O)CCl)C2)Cc2cc(O)cc(c2)-c2ccc3c(c2)N(C1)CC3(C)C#N (mixture of isomers) [Compound 224] | ≤ 5 | ≤ 500 | 1 to 10 | – |
| CC1COC(=O)C2CCCN(N2)C(=O)C(NC(=O)C(C(C)C)N(C)C(=O)C2CN(C(=O)CCl)C2)Cc2cc(O)cc(c2)-c2ccc3c(c2)N(C1)CC3(C)CCC#N (mixture of isomers) [Compound 225] | ≤ 5 | ≤ 500 | 1 to 10 | – |
| CC(C)[C@@H](C(=O)N[C@H]1Cc2cc(O)cc(c2)-c2ccc3c(C(C)(C)C#N)cn(c3c2)CC(CO)COC(=O)[C@@H]2CCCN(N2)C1=O)N(C)C(=O)C1CN(C(=O)CCl)C1 (single isomer, unassigned) [Compound 21] | > 15 | 500 to 5000 | > 10 | – |
| CC(C)[C@@H](C(=O)N[C@H]1Cc2cc(O)cc(c2)-c2ccc3c(C(C)(C)C#N)cn(c3c2)CC(CO)COC(=O)[C@@H]2CCCN(N2)C1=O)N(C)C(=O)C1CN(C(=O)CCl)C1 (single isomer, unassigned) [Compound 22] | 5 to 15 | ≤ 500 | > 10 | – |
| COCC1COC(=O)C2CCCN(N2)C(=O)C(NC(=O)C(C(C)C)N(C)C(=O)C2CN(C(=O)CCl)C2)Cc2cc(O)cc(c2)-c2ccc3c(C(C)(C)C#N)cn(c3c2)C1 (single isomer, unassigned) [Compound 24] | 5 to 15 | ≤ 500 | ≤ 1 | – |
| CC(C)C(C(=O)NC1Cc2cc(O)cc(c2)-c2ccc3c(C(C)(C)C#N)cn(c3c2)CC(F)COC(=O)C2CCCN(N2)C1=O)N(C)C(=O)C1CN(C(=O)CCl)C1 (single isomer, unassigned) [Compound 25] | 5 to 15 | ≤ 500 | > 10 | – |
| CC(C)C(C(=O)NC1Cc2cc(O)cc(c2)-c2ccc3c(C(C)(C)C#N)cn(c3c2)CC(C(F)F)COC(=O)C2CCCN(N2)C1=O)N(C)C(=O)C1CN(C(=O)CCl)C1 (single isomer, unassigned) [Compound 36] | 5 to 15 | ≤ 500 | 1 to 10 | – |
| CC(C)[C@@H](C(=O)N[C@H]1Cc2cc(O)cc(c2)-c2ccc3c(C(C)(C)C#N)cn(c3c2)CC(C(F)F)COC(=O)[C@@H]2CCCN(N2)C1=O)N(C)C(=O)C1CN(C(=O)CCl)C1 (single isomer, unassigned) [Compound 37] | 5 to 15 | ≤ 500 | 1 to 10 | – |
| CC(C)C(C(=O)NC1Cc2cc(O)cc(c2)-c2ccc3c(C(C)(C)C#N)cn(c3c2)CC(Cl)COC(=O)C2CCCN(N2)C1=O)N(C)C(=O)C1CN(C(=O)CCl)C1 (single isomer, unassigned) [Compound 41] | ≤ 5 | ≤ 500 | 1 to 10 | – |
| CC1COC(=O)[C@@H]2CCCN(N2)C(=O)[C@@H](NC(=O)[C@H](C(C)C)N(C)C(=O)C2CN(C(=O)CCl)C2)Cc2cc(O)cc(c2)-c2ccc3c(S(C)(=O)=O)cn(c3c2)C1 (single isomer, unassigned) [Compound 111] | 5 to 15 | ≤ 500 | > 10 | – |
| CC1COC(=O)[C@@H]2CCCN(N2)C(=O)[C@@H](NC(=O)[C@H](C(C)C)N(C)C(=O)C2CN(C(=O)CCl)C2)Cc2cc(O)cc(c2)-c2ccc3c(c2)N(CCO3)C1 (single isomer, unassigned) [Compound 183] | 5 to 15 | 500 to 5000 | 1 to 10 | – |
| CC1COC(=O)[C@@H]2CCCN(N2)C(=O)[C@@H](NC(=O)[C@H](C(C)C)N(C)C(=O)C2CN(C(=O)CCl)C2)Cc2cc(O)cc(c2)-c2ccc3c(c2)N(CCO3)C1 (single isomer, unassigned) [Compound 184] | ≤ 5 | 500 to 5000 | > 10 | – |
| C=CC(=O)N1CCN([C@H](C(=O)N[C@H]2Cc3cc(O)cc(c3)-c3ccc4nc(C)n(c4c3)CC(C)(C)COC(=O)[C@@H]3CCCN(N3)C2=O)C(C)C)C1=O [Compound 1, (2S)-2-(3-acryloyl-2-oxoimidazolidin-1-yl)-N-((6^3S,4S)-2^5-hydroxy-1^2,10,10-trimethyl-5,7-dioxo-6^1,6^2,6^3,6^4,6^5,6^6-hexahydro-1^1H-8-oxa-1(6,1)-benzo[d]imidazola-6(1,3)-pyridazina-2(1,3)-benzenacycloundecaphane-4-yl)-3-methylbutanamide] | 5 to 15 | ≤ 500 | – | > 10 |
| CC(C)[C@@H](C(=O)N[C@H]1Cc2cc(O)cc(c2)-c2ccc3c(C#N)cn(c3c2)CC(C)(C)CNC(=O)[C@@H]2CCCN(N2)C1=O)N(C)C(=O)C1CN(C(=O)CCl)C1 [Compound 3, 1-(2-chloroacetyl)-N-((2S)-1-(((6^3S,4S)-1^3-cyano-2^5-hydroxy-10,10-dimethyl-5,7-dioxo-6^1,6^2,6^3,6^4,6^5,6^6-hexahydro-1^1H-8-aza-1(6,1)-indola-6(1,3)-pyridazina-2(1,3)-benzenacycloundecaphane-4-yl)amino)-3-methyl-1-oxobutan-2-yl)-N-methylazetidine-3-carboxamide] | ≤ 5 | ≤ 500 | – | > 10 |
| C=CC(=O)N1CCN(C(C(=O)NC2Cc3cc(O)cc(c3)-c3ccc4c(C(C)(C)C#N)cn(c4c3)CC(C)(C)COC(=O)C3CCCN(N3)C2=O)C(C)C)C(=O)C1 (stereo not drawn) [Compound 14] | > 15 | > 5000 | > 10 | – |
| CC1COC(=O)C2CCCN(N2)C(=O)C(NC(=O)C(C(C)C)N(C)C(=O)C2CN(C(=O)C(C)Cl)C2)Cc2cc(O)cc(c2)-c2ccc3c(C(C)(C)C#N)cn(c3c2)C1 (stereo not drawn) [Compound 18] | > 15 | 500 to 5000 | > 10 | – |
